ChEMBL document CHEMBL1201862, “PubChem BioAssay data set” (2004)
Values belong to the compound of their own block, whether it stands above or below them. Active and inactive are the calls of the source.

Key:
Cytochrome P450 3A4 = Cytochrome P450 3A4 (Homo sapiens, UniProt P08684);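 also: CYP3A4 tested as one member of a cytochrome P450 panel screen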
[1] = target: T1, Low molecular weight phosphotyrosine protein phosphatase (Homo sapiens, UniProt P24666); type: functional; conditions: read-out: IC50_Mean;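 also: Dose-response confirmation assay measuring inhibition of LMPTP enzyme activity by fluorescence intensity read-out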
T1 sequence (P24666 whole entry): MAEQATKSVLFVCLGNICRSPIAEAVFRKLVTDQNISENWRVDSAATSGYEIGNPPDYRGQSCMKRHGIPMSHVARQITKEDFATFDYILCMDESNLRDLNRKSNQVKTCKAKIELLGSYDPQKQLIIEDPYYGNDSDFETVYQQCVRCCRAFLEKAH

[2] = viability of uninfected HEp-2 cells – cell-based, HTS, cytotoxicity control for RSV inhibitor project, dose response (AID 2410); type: functional; conditions: human respiratory syncytial virus
[3] = target: T2, Sentrin-specific protease 6 (Homo sapiens, UniProt Q9GZR1); type: functional
T2 sequence (Q9GZR1 whole entry): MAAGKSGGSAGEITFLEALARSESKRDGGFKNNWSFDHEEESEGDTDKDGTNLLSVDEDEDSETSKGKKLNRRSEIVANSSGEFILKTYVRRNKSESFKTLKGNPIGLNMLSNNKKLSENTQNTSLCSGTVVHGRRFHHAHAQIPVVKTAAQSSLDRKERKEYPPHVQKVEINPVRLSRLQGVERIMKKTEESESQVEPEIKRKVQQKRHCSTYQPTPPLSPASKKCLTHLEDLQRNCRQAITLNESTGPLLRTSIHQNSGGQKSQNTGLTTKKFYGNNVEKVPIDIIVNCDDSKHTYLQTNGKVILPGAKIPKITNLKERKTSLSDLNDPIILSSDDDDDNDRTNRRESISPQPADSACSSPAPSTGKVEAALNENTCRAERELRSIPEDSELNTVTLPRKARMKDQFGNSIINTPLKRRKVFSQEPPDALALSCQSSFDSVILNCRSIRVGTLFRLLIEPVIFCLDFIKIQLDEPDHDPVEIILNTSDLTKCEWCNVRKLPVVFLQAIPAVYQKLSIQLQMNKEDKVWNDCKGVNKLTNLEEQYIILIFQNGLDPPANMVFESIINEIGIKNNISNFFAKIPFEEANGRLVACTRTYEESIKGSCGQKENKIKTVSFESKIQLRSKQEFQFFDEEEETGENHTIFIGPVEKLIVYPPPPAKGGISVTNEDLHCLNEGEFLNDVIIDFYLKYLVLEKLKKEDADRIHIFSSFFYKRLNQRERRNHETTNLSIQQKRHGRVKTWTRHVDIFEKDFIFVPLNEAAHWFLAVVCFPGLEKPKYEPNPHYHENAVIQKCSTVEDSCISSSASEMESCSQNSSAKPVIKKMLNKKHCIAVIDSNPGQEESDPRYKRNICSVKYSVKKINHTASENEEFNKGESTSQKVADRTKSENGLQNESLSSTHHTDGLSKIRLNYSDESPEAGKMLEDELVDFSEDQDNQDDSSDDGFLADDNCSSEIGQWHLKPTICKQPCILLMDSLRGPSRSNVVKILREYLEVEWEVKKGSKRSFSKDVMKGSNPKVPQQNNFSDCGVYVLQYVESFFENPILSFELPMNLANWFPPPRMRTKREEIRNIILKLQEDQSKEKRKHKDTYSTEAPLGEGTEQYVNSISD

Caspase-3 [4] = target: T3, Caspase-3 (Homo sapiens, UniProt P42574); assay: SAR Analysis of small molecule inhibitors of Sentrin-specific proteases (SENPs) using a Caspase-3 Selectivity assay. [Related pubchem assays (depositor defined):AID2540, AID2599, AID434973, AID489001]; type: functional
T3 sequence (P42574 whole entry): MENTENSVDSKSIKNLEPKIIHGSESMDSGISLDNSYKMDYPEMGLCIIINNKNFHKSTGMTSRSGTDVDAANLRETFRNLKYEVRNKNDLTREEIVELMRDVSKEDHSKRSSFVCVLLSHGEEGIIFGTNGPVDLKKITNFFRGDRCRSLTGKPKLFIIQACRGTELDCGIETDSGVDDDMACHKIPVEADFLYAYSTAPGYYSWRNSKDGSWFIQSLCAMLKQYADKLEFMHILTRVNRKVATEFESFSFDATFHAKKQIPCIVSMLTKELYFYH

[5] = target: T2, Sentrin-specific protease 6; assay: SAR Analysis of small molecule inhibitors of Sentrin-specific protease 6 (SENP6) using a Luminescent assay. [Related pubchem assays (depositor defined):AID2582, AID2599]; type: functional
[6] = target: T4, Sentrin-specific protease 8 (Homo sapiens, UniProt Q96LD8); type: functional;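 also: luminescence read-out of SENP8 inhibition, dose-response confirmation following an ultra-high-throughput screen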
T4 sequence (Q96LD8 whole entry): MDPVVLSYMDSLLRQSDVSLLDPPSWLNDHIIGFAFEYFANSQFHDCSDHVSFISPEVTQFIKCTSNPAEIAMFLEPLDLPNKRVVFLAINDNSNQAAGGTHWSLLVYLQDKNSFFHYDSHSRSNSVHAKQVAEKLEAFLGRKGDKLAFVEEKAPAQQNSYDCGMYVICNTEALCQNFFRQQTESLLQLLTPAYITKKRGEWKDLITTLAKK

[7] = target: T5, Sentrin-specific protease 7 (Homo sapiens, UniProt Q9BQF6); type: functional;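 also: Luminescence-based dose-response confirmation of ultra-high-throughput screening hits, measuring inhibition of SENP7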
T5 sequence (Q9BQF6 whole entry): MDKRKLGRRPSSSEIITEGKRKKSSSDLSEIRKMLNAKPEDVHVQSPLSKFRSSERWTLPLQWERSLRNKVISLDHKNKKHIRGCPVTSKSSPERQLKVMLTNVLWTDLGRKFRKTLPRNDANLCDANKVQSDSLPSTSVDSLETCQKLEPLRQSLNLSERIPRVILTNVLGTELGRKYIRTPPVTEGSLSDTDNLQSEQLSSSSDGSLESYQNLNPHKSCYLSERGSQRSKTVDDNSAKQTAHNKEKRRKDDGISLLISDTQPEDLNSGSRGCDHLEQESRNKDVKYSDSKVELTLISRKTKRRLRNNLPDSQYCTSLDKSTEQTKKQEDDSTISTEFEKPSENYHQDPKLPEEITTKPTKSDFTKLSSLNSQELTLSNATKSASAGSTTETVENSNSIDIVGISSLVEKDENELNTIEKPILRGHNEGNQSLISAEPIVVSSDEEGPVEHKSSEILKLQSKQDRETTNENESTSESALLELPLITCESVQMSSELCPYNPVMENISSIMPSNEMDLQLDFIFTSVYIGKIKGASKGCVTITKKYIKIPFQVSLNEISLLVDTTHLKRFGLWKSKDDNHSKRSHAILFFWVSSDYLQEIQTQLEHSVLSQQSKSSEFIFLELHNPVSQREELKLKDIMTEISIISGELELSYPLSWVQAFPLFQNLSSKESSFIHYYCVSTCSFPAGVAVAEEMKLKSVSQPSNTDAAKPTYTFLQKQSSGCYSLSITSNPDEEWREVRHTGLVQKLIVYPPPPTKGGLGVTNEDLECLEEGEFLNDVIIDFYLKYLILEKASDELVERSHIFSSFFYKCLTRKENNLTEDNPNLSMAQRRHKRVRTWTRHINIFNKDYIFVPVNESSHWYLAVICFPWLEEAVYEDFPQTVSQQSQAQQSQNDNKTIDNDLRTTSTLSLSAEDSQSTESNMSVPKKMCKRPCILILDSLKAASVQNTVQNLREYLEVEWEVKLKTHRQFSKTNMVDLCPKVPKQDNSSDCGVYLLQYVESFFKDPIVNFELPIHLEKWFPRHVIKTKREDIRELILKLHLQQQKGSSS

[8] = target: T4, Sentrin-specific protease 8; assay: inhibition of human SENP8 cleavage activity – biochemical, luminescence, SAR follow-up (AID 504501); type: functional
[9] = target: T5, Sentrin-specific protease 7; assay: inhibition of human SENP7 cleavage activity – biochemical, luminescence, SAR follow-up (AID 504497); type: functional
Caspase-3 [10] = target: T3, Caspase-3; type: functional
Escherichia coli = assay: microbe, parasite or virus in culture
[11] = HEK-293T viability loss after treatment – luminescence, T-cell screen hits, cytotoxicity control for TCR NF-kB inhibitor project, dose response (AID 489026); type: functional, cell-based;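 also: cells exposed to compound about 14 hours before the viability readout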
[12] = target: T6, Heat shock factor protein 1 (Mus musculus, UniProt P38532); assay: decrease of HSF1-responsive luciferase luminescence – cell-based, NIH3T3, dose retest, confirmation (AID 2382); type: functional;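 also: NIH3T3 fibroblasts with HSF1-driven luciferase reporter stressed by proteasome inhibitor MG132; luminescence from HSF1-driven luciferase expression after 8 hours of MG132 stress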
T6 sequence (P38532 whole entry): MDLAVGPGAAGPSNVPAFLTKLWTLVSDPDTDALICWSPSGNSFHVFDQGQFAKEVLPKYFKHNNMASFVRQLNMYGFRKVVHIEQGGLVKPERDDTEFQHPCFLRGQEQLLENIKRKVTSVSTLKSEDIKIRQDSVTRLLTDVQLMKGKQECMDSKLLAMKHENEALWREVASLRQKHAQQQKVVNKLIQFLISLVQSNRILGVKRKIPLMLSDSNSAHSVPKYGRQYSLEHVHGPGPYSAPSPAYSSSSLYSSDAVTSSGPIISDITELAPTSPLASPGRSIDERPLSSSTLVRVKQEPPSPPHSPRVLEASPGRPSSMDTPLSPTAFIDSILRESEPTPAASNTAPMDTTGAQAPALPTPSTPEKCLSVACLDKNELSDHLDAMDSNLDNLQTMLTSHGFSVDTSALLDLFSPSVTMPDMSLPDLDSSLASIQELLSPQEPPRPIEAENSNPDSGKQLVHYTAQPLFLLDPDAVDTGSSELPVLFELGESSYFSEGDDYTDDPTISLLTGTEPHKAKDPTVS

Paired box protein Pax-8 = Paired box protein Pax-8 (Homo sapiens, UniProt Q06710); assay: PAX8 transcriptional activity inhibition in RMG-I – RMG-I cells, luciferase, cherry-pick, dose response (AID 687027); type: functional, cell-based;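 also: luciferase reporter driven by Pax8 target thyroperoxidase promoter measured by SteadyGlo luminescence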
Paired box protein Pax-8, sequence (Q06710 whole entry): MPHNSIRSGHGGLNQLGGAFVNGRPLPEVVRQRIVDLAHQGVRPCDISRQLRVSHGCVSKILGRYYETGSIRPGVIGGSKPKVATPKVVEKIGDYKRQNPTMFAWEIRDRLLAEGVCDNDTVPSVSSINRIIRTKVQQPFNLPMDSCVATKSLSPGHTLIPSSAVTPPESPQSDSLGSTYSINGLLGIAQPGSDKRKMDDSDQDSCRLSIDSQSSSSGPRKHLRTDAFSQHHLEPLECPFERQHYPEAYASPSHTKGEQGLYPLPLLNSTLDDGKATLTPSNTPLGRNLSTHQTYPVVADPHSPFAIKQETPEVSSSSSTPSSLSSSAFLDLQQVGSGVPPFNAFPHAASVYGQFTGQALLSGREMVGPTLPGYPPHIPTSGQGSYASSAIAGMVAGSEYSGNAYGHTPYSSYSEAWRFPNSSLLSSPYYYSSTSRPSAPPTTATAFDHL

Cytochrome P450 3A4, sequence (P08684 whole entry): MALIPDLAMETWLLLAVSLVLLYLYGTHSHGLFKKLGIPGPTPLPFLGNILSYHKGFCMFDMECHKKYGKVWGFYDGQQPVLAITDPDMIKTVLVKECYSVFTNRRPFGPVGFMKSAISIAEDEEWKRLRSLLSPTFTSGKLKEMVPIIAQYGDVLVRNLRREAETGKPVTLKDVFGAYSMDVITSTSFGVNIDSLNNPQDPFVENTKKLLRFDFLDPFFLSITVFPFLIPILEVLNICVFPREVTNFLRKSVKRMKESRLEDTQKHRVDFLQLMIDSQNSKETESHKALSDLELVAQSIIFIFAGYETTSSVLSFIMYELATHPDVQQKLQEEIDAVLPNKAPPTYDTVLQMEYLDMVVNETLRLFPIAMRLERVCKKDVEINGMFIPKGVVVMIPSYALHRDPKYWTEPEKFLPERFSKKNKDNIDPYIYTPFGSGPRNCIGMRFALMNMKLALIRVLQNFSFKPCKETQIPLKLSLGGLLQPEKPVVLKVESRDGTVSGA

AC50 (Cytochrome P450 3A4): inconclusive
Compound: CS(=O)(=O)N1CCC2(CC1)CN(C(c1ccccc1)c1ccccc1)C2

Compound: CCn1cc(C(=O)O)c(=O)c2cc(F)c(N3CCN(C(=O)Nc4ccccc4)CC3)cc21
IC50 [1]: 73.1 µM (inactive) | IC50 (cells): 26.9 µM (active) | CC50 [2]: > 50 µM (active)

IC50 [3]: 13.5 µM (active) | IC50 (Caspase-3 [4]): 1.41 µM (active) | IC50 [5]: 905 nM (active) | IC50 [7]: > 100 µM (inactive) | IC50 [9]: 896 nM (active) | IC50 (Caspase-3 [10]): > 100 µM (inactive)
Compound: CSc1nc2ccc(NC(=O)c3cc4ccccc4o3)cc2s1
IC50 [6]: 94.3 µM (active) | IC50 [8]: 869 nM (active)

Compound: O=C(O)C1C(=O)NCC1c1ccccc1 (stereo not drawn)
AC50 (Escherichia coli): 24.3 µM (active)

Compound: CC(C)NC(=O)N1CCC2(CC1)CCN(C(=O)Oc1ccccc1)CC2
AC50 (Cytochrome P450 3A4): inconclusive

Compound: Cc1nc2scc(-c3ccccc3)c2c(=O)n1/N=C/c1ccco1
AC50 (Escherichia coli): 23.4 µM (active)

Compound: C/N=c1\scc(-c2cccs2)n1/N=C/c1ccccc1O
IC50 [11]: > 80 µM (inactive) | EC50 [12]: < 160 nM (active) | AC50 (Paired box protein Pax-8): < 260 nM (active)
